Activity calls are given as the source filed them. The calls are words filed in the database; no cut-off is given here.
Assays:
[1] = tested on: Human immunodeficiency virus 1; assay: (§1) Antiviral activity against VSV-G pseudotyped HIV-1 NL4.3 (isolated from HEK293T cells viral stock supernatant) infected in human MT4 cells assessed as inhibition of early stage viral replication preincubated for 3 to 4 hrs in presence of polybrene followed by fresh media replacement with compound and measured after 48 hrs by flow cytometric analysis; format: functional, organism-based; conditions: Human immunodeficiency virus 1, NL4.3, MT4
[2] = tested on: Human immunodeficiency virus 1; assay: Antiviral activity against VSV-G pseudotyped HIV-1 NL4.3 (isolated from compound pretreated HEK293T cells viral stock supernatant) infected in human MT4 cells assessed as inhibition of late stage viral replication at 25 microM preincubated for 3 to 4 hrs in presence of polybrene followed by fresh media replacement with compound and measured after 48 hrs by flow cytometric analysis relative to …; format: functional; conditions: Human immunodeficiency virus 1, NL4.3, MT4, time 51-52 hrs
[3] = target: Human immunodeficiency virus type 1 integrase (Human immunodeficiency virus 1) (UniProt Q7ZJM1); assay: (§2) Inhibition of HIV1 integrase activity by measuring multimerization of His-tagged integrase/FLAG-tagged integrase incubated for 3 hrs by […] HTRF assay
Human immunodeficiency virus type 1 integrase (Human immunodeficiency virus 1), sequence (Q7ZJM1 as listed by the source): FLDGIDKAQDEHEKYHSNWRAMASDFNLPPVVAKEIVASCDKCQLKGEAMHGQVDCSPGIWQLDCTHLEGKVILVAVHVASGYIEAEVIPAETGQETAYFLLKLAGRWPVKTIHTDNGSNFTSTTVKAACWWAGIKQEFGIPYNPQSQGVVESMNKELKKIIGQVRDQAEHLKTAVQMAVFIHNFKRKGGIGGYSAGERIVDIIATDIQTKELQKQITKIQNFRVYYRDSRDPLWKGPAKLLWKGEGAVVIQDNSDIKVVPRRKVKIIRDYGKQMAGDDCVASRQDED

[4] = (§3) Inhibition of 6His-tagged recombinant HIV-1 integrase/biotinylated HIV-1 transactivation response element RNA interaction assessed as […] preincubated with integrase for 2 hrs followed by RNA addition and measured after 1 hrs by ALPHAscreen based AlphaLISA; design: species or system Human immunodeficiency virus 1
[5] = Inhibition of His-tagged HIV-1 integrase/FLAG-tagged LEDGF (unknown origin) protein-protein interaction preincubated with integrase for 30 mins followed by LEDGF/p75 addition and measured after overnight incubation by HTRF assay
[6] = target: T1, Human immunodeficiency virus type 1 integrase (Human immunodeficiency virus 1, UniProt Q7ZJM1); assay: Inhibition of HIV-1 integrase catalytic activity incubated for 1 hrs in absence of LEDGF/p75 by HTRF assay
T1 sequence (Q7ZJM1 whole entry): as the sequence (Q7ZJM1 as listed by the source) above

[7] = tested on: Human immunodeficiency virus 1; assay: as §3; conditions: time 3.0 hrs
[8] = target: T1, Human immunodeficiency virus type 1 integrase; assay: as §2
[9] = tested on: Human immunodeficiency virus 1; assay: as §1, with “analysis relative to control” for “analysis”; format: functional; conditions: time 51-52 hrs
[10] = tested on: Human immunodeficiency virus 1; assay: as §1, with “from compound pretreated” for “from”, “late” for “early”; format: functional, organism-based; conditions: time 51-52 hrs

In the case of `O=C(O)/C(O)=C/C(=O)c1ccc2c(c1)c(=O)c(C(=O)/C=C(\O)C(=O)O)cn2Cc1ccc(F)cc1`, the EC50 [1] is reported as 2270 nM, the inhibition at 25 µM [2] is reported as 40% and the inhibition [3] is reported as “Active”. The IC50 [4] was 840 nM and the inhibition [5] was “Active”.

With `CCOC(=O)/C(O)=C/C(=O)c1cn(Cc2ccc(F)cc2)c2ccc(C(=O)c3ccc(C(=O)OCC)cc3)cc2c1=O` the inhibition [3] was “Active”, the IC50 [6] was 741 nM and the inhibition [7] was “Active”. The inhibition [5] was “inactive”.

In the case of `CCOC(=O)c1cn(Cc2ccc(F)cc2)c2ccc(OCc3cccc4ccccc34)cc2c1=O`, the EC50 [8] is reported as > 200000 nM, the IC50 [6] is reported as 41900 nM and the inhibition [7] is reported as “Active”. The inhibition [5] was “inactive”.

In the case of `CN(C)c1cc2c(cc1C(=O)/C=C(\O)C(=O)O)c(=O)c(C(=O)/C=C(\O)C(=O)O)cn2Cc1ccc(F)cc1`, the EC50 [1] is reported as > 6250 nM, the inhibition [3] is reported as “Active” and the “inhibition (INH)” value [9] is reported as 38%. The IC50 [6] was 181 nM, the Activity [10] was “inactive” and the IC50 [4] was 750 nM. For the same molecule, the inhibition [5] was “inactive”.

In the case of `O=C(O)c1cn(Cc2ccc(F)cc2)c2ccc(OCc3ccc(F)cc3)cc2c1=O`, the inhibition [3] is reported as “inactive”, the IC50 [6] is reported as > 200000 nM and the inhibition [7] is reported as “Active”. For the same molecule, the inhibition [5] was “inactive”.

For `CCOC(=O)/C(O)=C/C(=O)c1ccc2c(c1)c(=O)c(C(=O)/C=C(\O)C(=O)OCC)cn2Cc1ccc(F)cc1`, the inhibition [3] was “Active”, the IC50 [6] was 800 nM and the IC50 [4] was 1980 nM. For the same molecule, the inhibition [5] was “inactive”.

For `O=C(O)/C(O)=C/C(=O)c1cn(Cc2ccc(F)cc2)c2ccc(C(=O)c3ccc(C(=O)O)cc3)cc2c1=O`, the inhibition [3] was “Active”, the IC50 [6] was 77 nM and the IC50 [4] was 1570 nM. The inhibition [5] was “inactive”.

In the case of `CCOC(=O)/C(O)=C/C(=O)c1ccc2[nH]cc(C(=O)/C=C(\O)C(=O)OCC)c(=O)c2c1`, the inhibition [3] is reported as “Active”, the IC50 [6] is reported as 2340 nM and the IC50 [4] is reported as 2220 nM. The inhibition [5] was “Active”.

In the case of `O=C(O)c1cn(Cc2ccc(F)cc2)c2ccc(Oc3ccccc3)cc2c1=O`, the inhibition [3] is reported as “Active”, the IC50 [6] is reported as > 200000 nM and the inhibition [7] is reported as “Active”. For the same molecule, the inhibition [5] was “inactive”.

For `CCOC(=O)/C(O)=C/C(=O)c1cc2c(=O)c(C(=O)/C=C(\O)C(=O)OCC)cn(Cc3ccc(F)cc3)c2cc1N(C)C`, the EC50 [1] was > 6250 nM, the EC50 [8] was > 200000 nM and the “inhibition (INH)” value [9] was 50%. The IC50 [6] was 480 nM, the Activity [10] was “inactive” and the IC50 [4] was 1040 nM. For the same molecule, the inhibition [5] was “inactive”.

For `O=C(O)/C(O)=C/C(=O)c1ccc2[nH]cc(C(=O)/C=C(\O)C(=O)O)c(=O)c2c1`, the inhibition [3] was “Active”, the IC50 [6] was 3140 nM and the IC50 [4] was 1330 nM. For the same molecule, the inhibition [5] was “Active”.

In the case of `O=C(O)c1cn(Cc2ccc(F)cc2)c2ccc(OCc3ccc(OCc4ccccc4)cc3)cc2c1=O`, the EC50 [8] is reported as > 2000 nM, the IC50 [6] is reported as 6280 nM and the inhibition [7] is reported as “Active”. For the same molecule, the inhibition [5] was “inactive”.

In the case of `CCOC(=O)/C(O)=C/C(=O)c1cc2c(=O)c(C(=O)/C=C(\O)C(=O)OCC)cn(Cc3ccc(F)cc3)c2cc1N1CCN(C)CC1`, the inhibition [3] is reported as “Active”, the IC50 [6] is reported as 782 nM and the IC50 [4] is reported as 4190 nM. For the same molecule, the inhibition [5] was “inactive”.

In the case of `CCOC(=O)c1cn(Cc2ccc(F)cc2)c2ccc(OCc3ccc(OCc4ccccc4)cc3)cc2c1=O`, the inhibition [3] is reported as “Active”, the IC50 [6] is reported as > 200000 nM and the inhibition [7] is reported as “Active”. The inhibition [5] was “inactive”.

With `O=C(O)c1cn(Cc2ccc(F)cc2)c2ccc(OCc3cccc4ccccc34)cc2c1=O` the EC50 [8] was > 200000 nM, the IC50 [6] was 36500 nM and the inhibition [7] was “Active”. The inhibition [5] was “inactive”.

— ChEMBL document CHEMBL5608250, “Quinolinonyl Derivatives as Dual Inhibitors of the HIV-1 Integrase Catalytic Site and Integrase-RNA interactions” (ACS Med Chem Lett, 2024)
